In patent publication US20260217767A1, “NOVEL A4B7 THIOETHER PEPTIDE DIMER ANTAGONISTS” (Protagonist Therapeutics, Inc., priority 2014, published 2026):
Where two headings read alike, the source gives them in different places. *1 amine or outer side, *2 acyl side, *3 side chain or, on linkers, in order; H or OH if unused. Where a SMILES comes first, the peptide text is derived from it. Bridges are numbered along the chain shown (N, C = ends). Roman numbers before positions name the chains, in order. [ ]: non-standard residue; d: D form. Phe(3-Me) = Cc1cccc(C[C@H](N)C(=O)O)c1; Phe(4-Me) = Cc1ccc(C[C@H](N)C(=O)O)cc1; 2Nal = N[C@@H](Cc1ccc2ccccc2c1)C(=O)O; Diglycolyl = O=C(COCC(=O)[*:2])[*:1]; Phe(2-Me) = Cc1ccccc1C[C@H](N)C(=O)O; NMeR = CN[C@@H](CCCNC(=N)N)C(=O)O; Tic = O=C(O)[C@@H]1Cc2ccccc2CN1; β3hE = N[C@@H](CCC(=O)O)CC(=O)O; X1 = O=C(c1ccccc1C[*:2])[*:1]; Pen = CC(C)(S)[C@H](N)C(=O)O

Columns and labels:
RPMI 8866 cells = biological target: T1, RPMI 8866 cells (Homo sapiens, UniProt P13612+P26010); experiment: α4β7-MAdCAM Cell Adhesion Assay; format: cell-based; details: read-out: Cell-Adhesion A4B7
T1 sequence (P13612 34-1032): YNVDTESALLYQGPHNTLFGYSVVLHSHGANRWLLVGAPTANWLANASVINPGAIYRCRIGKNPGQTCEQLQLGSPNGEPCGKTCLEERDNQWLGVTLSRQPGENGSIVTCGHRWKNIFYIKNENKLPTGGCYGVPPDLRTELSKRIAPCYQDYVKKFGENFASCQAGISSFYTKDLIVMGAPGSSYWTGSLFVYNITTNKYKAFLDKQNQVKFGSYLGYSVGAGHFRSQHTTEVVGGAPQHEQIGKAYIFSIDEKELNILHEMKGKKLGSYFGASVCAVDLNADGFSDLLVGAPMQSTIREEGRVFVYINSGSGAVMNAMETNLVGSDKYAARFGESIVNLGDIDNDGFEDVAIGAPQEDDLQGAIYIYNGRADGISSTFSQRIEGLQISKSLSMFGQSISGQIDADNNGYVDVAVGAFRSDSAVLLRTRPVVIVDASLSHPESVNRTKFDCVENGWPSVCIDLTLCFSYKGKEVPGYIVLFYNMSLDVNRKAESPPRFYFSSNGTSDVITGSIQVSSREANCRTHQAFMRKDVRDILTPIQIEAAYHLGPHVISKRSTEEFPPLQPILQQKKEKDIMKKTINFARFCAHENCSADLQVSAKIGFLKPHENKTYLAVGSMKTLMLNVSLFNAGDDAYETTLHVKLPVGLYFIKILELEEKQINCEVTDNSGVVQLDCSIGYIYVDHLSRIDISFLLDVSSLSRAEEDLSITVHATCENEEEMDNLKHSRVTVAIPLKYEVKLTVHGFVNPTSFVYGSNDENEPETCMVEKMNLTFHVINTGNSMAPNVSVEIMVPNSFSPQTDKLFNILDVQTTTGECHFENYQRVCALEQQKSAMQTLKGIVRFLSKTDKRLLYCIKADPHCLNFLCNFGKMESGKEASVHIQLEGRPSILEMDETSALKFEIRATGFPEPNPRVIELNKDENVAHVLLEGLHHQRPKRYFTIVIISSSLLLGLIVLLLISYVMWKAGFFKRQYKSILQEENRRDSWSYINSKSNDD
T1 sequence (P26010 20-798): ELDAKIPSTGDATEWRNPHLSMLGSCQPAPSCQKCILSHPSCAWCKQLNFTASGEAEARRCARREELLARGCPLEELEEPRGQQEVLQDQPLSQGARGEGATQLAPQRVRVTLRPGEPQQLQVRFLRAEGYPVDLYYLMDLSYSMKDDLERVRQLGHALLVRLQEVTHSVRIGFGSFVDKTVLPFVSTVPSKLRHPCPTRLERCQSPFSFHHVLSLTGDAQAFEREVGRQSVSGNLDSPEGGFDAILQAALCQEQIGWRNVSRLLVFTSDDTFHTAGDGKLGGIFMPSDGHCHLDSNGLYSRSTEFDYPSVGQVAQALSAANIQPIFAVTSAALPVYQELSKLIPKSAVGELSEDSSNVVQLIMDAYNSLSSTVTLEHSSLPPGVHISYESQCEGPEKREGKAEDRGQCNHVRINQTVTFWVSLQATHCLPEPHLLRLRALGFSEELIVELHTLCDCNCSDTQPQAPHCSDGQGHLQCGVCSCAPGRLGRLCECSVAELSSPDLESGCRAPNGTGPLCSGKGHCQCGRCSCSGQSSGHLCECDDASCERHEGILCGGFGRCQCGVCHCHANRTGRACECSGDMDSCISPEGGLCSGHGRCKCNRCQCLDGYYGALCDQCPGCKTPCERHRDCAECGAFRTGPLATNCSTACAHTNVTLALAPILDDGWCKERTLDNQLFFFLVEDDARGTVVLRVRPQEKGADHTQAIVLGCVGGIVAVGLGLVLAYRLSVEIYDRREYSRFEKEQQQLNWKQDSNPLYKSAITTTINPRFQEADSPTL
Summary of the method: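 RPMI 8866 cells (200,000/well) in DMEM with 1 mM MnCl2 and 0.1% BSA were allowed to adhere 30-45 min at 37° C to plates coated with rh MAdCAM-1/Fc (200 ng/well) in presence of serially diluted peptide. After washing, bound cells quantified by MTT, absorbance 570 nm, cell-free background subtracted.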

[1] = Simulated Intestinal Fluid (SIF) Stability Assay; format: in vitro ADME; details: pig, 37° C.; for half-life: porcine pancreatin; for half-life at 22 μM: simulated intestinal fluid (SIF) with 1% porcine pancreatin, pH 6.5, porcine pancreatin
Procedure: Simulated Intestinal Fluid (SIF) Stability Assay
Studies were carried out in simulated intestinal fluid (SIF) to evaluate intestinal stability of the peptide molecules of the instant invention. To prepare the SIF reagent, blank FASSIF was prepared by dissolving 0.348 g NaOH, 3.954 g sodium phosphate monobasic monohydrate and 6.186 g NaCl in a final volume of 1 liter water (final pH=6.5). To this solution, 24 g porcine pancreatin (Sigma catalog P7545) was added and stirred for 30 minutes (final pancreatin concentration is 2.4%). The solution was filtered through a cheese cloth and a No. 1 Whatman filter, and 10 ml aliquots were stored at −70° C. To run the reaction, a 10 ml aliquot was thawed at 37° C., and 125 μl aliquots were removed and mixed with an equal volume of blank FASSIF. The peptide stock solution (10 mM in 100% DMSO) was diluted 75-fold in blank FASSIF. A 50 μl aliquot of the diluted peptide was combined with 125 μl pancreatin (2.4%) and 125 μl blank FASSIF to yield final concentrations of 1% pancreatin and 22 μM peptide. The reactions were incubated at 37° C., and at various time points 50 μl aliquots were removed and added to 200 μl of quench solution containing 50% acetonitrile, 50% methanol, 5% formic acid, and 1 μg/ml internal standard. The quenched samples were centrifuged at 10,000 rpm for 10 minutes, and the supernatants were analyzed by LCMS/MS. The percent remaining at each time point was calculated based on the peak area response ratio of test to compound to internal standard. Half-lives were calculated by fitting to a first-order exponential decay equation using GraphPad. A small sampling of the results of these studies is provided and discussed herein and in the accompanying figures.

[2] = thioether monomer peptides, Table 6
[3] = thioether peptide dimers, Table 7

SMILES	IC50 (RPMI 8866 cells; [2])	half-life ([1]; monomers, Table 6)	IC50 (RPMI 8866 cells; [3])	half-life ([1]; dimers, Table 7)	half-life at 22 μM ([1]; dimers, Table 7)
Cc1cccc(C[C@H](NC(=O)[C@H]2NC(=O)[C@H](CC(C)C)NC(=O)[C@H]([C@@H](C)O)NC(=O)[C@H](CC(=O)O)NC(=O)[C@H](CO)NC(=O)[C@H](CCCNC(=N)N)N(C)C(=O)c3ccccc3CSC2(C)C)C(=O)N[C@@H](CCC(=O)O)CC(N)=O)c1 [compound 125] ([NMeR]SDTL[Pen][Phe(3-Me)][β3hE]-NH2; linker N-6 via X1)	< 25 nM	> 180 min			
Cc1ccccc1C[C@H](NC(=O)[C@H]1NC(=O)[C@H](CC(C)C)NC(=O)[C@H]([C@@H](C)O)NC(=O)[C@H](CC(=O)O)NC(=O)[C@H](CO)NC(=O)[C@H](CCCNC(=N)N)N(C)C(=O)c2ccccc2CSC1(C)C)C(=O)N[C@@H](CCC(=O)O)CC(N)=O [compound 126] ([NMeR]SDTL[Pen][Phe(2-Me)][β3hE]-NH2; linker N-6 via X1)	25 to 100 nM	> 180 min			
Cc1ccc(C[C@H](NC(=O)[C@H]2NC(=O)[C@H](CC(C)C)NC(=O)[C@H]([C@@H](C)O)NC(=O)[C@H](CC(=O)O)NC(=O)[C@H](CO)NC(=O)[C@H](CCCNC(=N)N)N(C)C(=O)c3ccccc3CSC2(C)C)C(=O)N[C@@H](CCC(=O)O)CC(N)=O)cc1 [compound 132] ([NMeR]SDTL[Pen][Phe(4-Me)][β3hE]-NH2; linker N-6 via X1)	< 25 nM	> 180 min			
CC(C)C[C@@H]1NC(=O)[C@H]([C@@H](C)O)NC(=O)[C@H](CC(=O)O)NC(=O)[C@H](CO)NC(=O)[C@H](CCCNC(=N)N)N(C)C(=O)CCSCC[C@@H](C(=O)N[C@@H](Cc2c[nH]c3ccccc23)C(=O)N[C@H](CCCCNC(=O)COCC(=O)NCCCC[C@@H](NC(=O)[C@H](Cc2c[nH]c3ccccc23)NC(=O)[C@@H]2CCSCCC(=O)N(C)[C@@H](CCCNC(=N)N)C(=O)N[C@@H](CO)C(=O)N[C@@H](CC(=O)O)C(=O)N[C@@H]([C@@H](C)O)C(=O)N[C@@H](CC(C)C)C(=O)N2)C(N)=O)C(N)=O)NC1=O [compound 149]			> 1000 nM	< 20 min	
CC(C)C[C@@H]1NC(=O)[C@H]([C@@H](C)O)NC(=O)[C@H](CC(=O)O)NC(=O)[C@H](CO)NC(=O)[C@H](CCCNC(=N)N)N(C)C(=O)c2ccccc2CSC(C)(C)[C@@H](C(=O)N[C@H](Cc2ccccc2)C(=O)N[C@@H](Cc2ccc3ccccc3c2)C(=O)N[C@H](CCCCNC(=O)COCC(=O)NCCCC[C@@H](NC(=O)[C@H](Cc2ccc3ccccc3c2)NC(=O)[C@@H](Cc2ccccc2)NC(=O)[C@H]2NC(=O)[C@H](CC(C)C)NC(=O)[C@H]([C@@H](C)O)NC(=O)[C@H](CC(=O)O)NC(=O)[C@H](CO)NC(=O)[C@H](CCCNC(=N)N)N(C)C(=O)c3ccccc3CSC2(C)C)C(N)=O)C(N)=O)NC1=O [compound 162] (I: [NMeR]SDTL[Pen][dF][2Nal][dK]-NH2 / II: [NMeR]SDTL[Pen][dF][2Nal][dK]-NH2; linker I:9-II:9 via Diglycolyl; linker I:N-I:6, II:N-II:6 via X1)			100 to 1000 nM		> 180 min
COC(=O)CC[C@H](NC(=O)[C@@H]1Cc2ccccc2CN1C(=O)[C@@H]1CSCc2ccccc2C(=O)N(C)[C@@H](CCCNC(=N)N)C(=O)N[C@@H](CO)C(=O)N[C@@H](CC(=O)O)C(=O)N[C@@H]([C@@H](C)O)C(=O)N[C@@H](CC(C)C)C(=O)N1)C(=O)N[C@H](CCCCN)C(N)=O [compound 211] (HELM PEPTIDE1{[meR].S.D.T.L.C.[Tic].E.[dK].[am]}|CHEM1{[CO[*:1]]}|CHEM2{[O=C(c1ccccc1C[*:2])[*:1]]}$PEPTIDE1,CHEM1,8:R3-1:R1|PEPTIDE1,CHEM2,1:R1-1:R1|PEPTIDE1,CHEM2,6:R3-1:R2$$$V2.0)			< 25 nM		7 min
CC(C)C[C@@H]1NC(=O)[C@H]([C@@H](C)O)NC(=O)[C@H](CC(=O)O)NC(=O)[C@H](CO)NC(=O)[C@H](CCCNC(=N)N)N(C)C(=O)c2ccccc2CSC[C@@H](C(=O)N2Cc3ccccc3C[C@H]2C(=O)N[C@H](CCCCN)C(N)=O)NC1=O [compound 216] (HELM PEPTIDE1{[meR].S.D.T.L.C.[Tic].[dK].[am]}|CHEM1{[O=C(c1ccccc1C[*:2])[*:1]]}$PEPTIDE1,CHEM1,1:R1-1:R1|PEPTIDE1,CHEM1,6:R3-1:R2$$$V2.0)			< 25 nM		> 180 min
COC(=O)CC[C@H](NC(=O)[C@@H]1Cc2ccccc2CN1C(=O)[C@@H]1CSCc2ccccc2C(=O)N(C)[C@@H](CCCNC(=N)N)C(=O)N[C@@H](CO)C(=O)N[C@@H](CC(=O)O)C(=O)N[C@@H]([C@@H](C)O)C(=O)N[C@@H](CC(C)C)C(=O)N1)C(=O)N[C@H](CCCCNC(=O)COCC(=O)NCCCC[C@@H](NC(=O)[C@H](CCC(=O)OC)NC(=O)[C@@H]1Cc2ccccc2CN1C(=O)[C@@H]1CSCc2ccccc2C(=O)N(C)[C@@H](CCCNC(=N)N)C(=O)N[C@@H](CO)C(=O)N[C@@H](CC(=O)O)C(=O)N[C@@H]([C@@H](C)O)C(=O)N[C@@H](CC(C)C)C(=O)N1)C(=O)O)C(=O)O [compound 220] (I: [NMeR]SDTLC[Tic]E(OMe)[dK]-OH / II: [NMeR]SDTLC[Tic]E(OMe)[dK]-OH; linker I:9-II:9 via Diglycolyl; linker I:N-I:6, II:N-II:6 via X1)			< 25 nM	> 180 min	
